Several values for one entry are separate records, joined by “and”; a condition that tells them apart may be missing. Equal values may be shown once. Where a name gives a salt, the structure may show the parent alone. Read-outs that look alike come from different tables or passages of the source.
Experiments:
[1] = system: HI650 (Lung Adenocarcinoma); assay: Cell viability analysis, lung cancer HI650; assay type: cell-based, human; details: Homo sapiens, NCI-H1650, 72 h
[2] = system: A549 (Lung Adenocarcinoma); assay: Cell viability analysis, lung cancer A549; assay type: cell-based, human; details: Homo sapiens, A549, 72 h
[3] = system: AGS (Gastric Adenocarcinoma); assay: Cell viability analysis, gastric cancer AGS; assay type: cell-based, human; details: Homo sapiens, 72 h
[4] = system: MKN-45 (Gastric Adenocarcinoma); assay: Cell viability analysis, gastric cancer MKN-45; assay type: cell-based, human; details: Homo sapiens, MKN-45, 72 h
[5] = system: HepG2 (Hepatocellular Carcinoma); assay: Cell viability analysis, hepatic cancer HepG2; assay type: cell-based, human; details: Homo sapiens, HepG2, 72 h
[6] = system: Hep3B (hepatocellular carcinoma); assay: Cell viability analysis, hepatic cancer Hep3B; assay type: cell-based, human; details: Homo sapiens, Hep3B, 72 h, read-out: The results of antibiotic drug inhibiting cancer cell lines (cell viability analysis), Hep3B
[7] = system: LoVo (Colorectal Adenocarcinoma); assay: Cell viability analysis, colon cancer LoVo; assay type: cell-based, human; details: Homo sapiens, LoVo, 72 h
[8] = system: A375 (Amelanotic Melanoma); assay: Cell viability analysis, skin cancer A375; assay type: cell-based, human; details: Homo sapiens, A-375, 72 h
[9] = system: BCC (basal cell carcinoma); assay: Cell viability analysis, skin cancer BCC; assay type: cell-based, human; details: Homo sapiens, 72 h, read-out: The results of antibiotic drug inhibiting cancer cell lines (cell viability analysis), BCC
[10] = system: HeLa (Cervix Adenocarcinoma); assay: Cell viability analysis, cervical cancer HeLa; assay type: cell-based, human; details: Homo sapiens, HeLa, 72 h
[11] = system: C-33A (Cervical carcinoma); assay: Cell viability analysis, cervical cancer C-33A; assay type: cell-based, human; details: Homo sapiens, C-33-A, 72 h, read-out: The results of antibiotic drug inhibiting cancer cell lines (cell viability analysis), C-33A
[12] = system: PC3 (p53−) (Prostate Adenocarcinoma); assay: Cell viability analysis, prostate cancer PC3; assay type: cell-based, human; details: Homo sapiens, 72 h
[13] = system: TSGH-8301 (Urinary Bladder Carcinoma); assay: Cell viability analysis, bladder cancer TSGH-8301; assay type: cell-based, human; details: Homo sapiens, 72 h
T24 = assay: Cell viability analysis, bladder cancer T24; assay type: cell-based, human; details: Homo sapiens, T-24, 72 h, read-out: The results of antibiotic drug inhibiting cancer cell lines (cell viability analysis), T24
[14] = system: MCF7 (Mammary Gland, Adenocarcinoma); assay: Cell viability analysis, breast cancer MCF7; assay type: cell-based, human; details: Homo sapiens, MCF7, 72 h
[15] = system: MDA-MB-231 (Mammary Gland, Adenocarcinoma); assay: Cell viability analysis, breast cancer MDA-MB-231; assay type: cell-based, human; details: Homo sapiens, MDA-MB-231, 72 h, read-out: The results of antibiotic drug inhibiting cancer cell lines (cell viability analysis), MDA-MB231
BxPC-3 = assay: Cell viability analysis, pancreatic cancer BxPC-3; assay type: cell-based, human; details: Homo sapiens, BXPC-3, 72 h, read-out: The results of antibiotic drug inhibiting cancer cell lines (cell viability analysis), BxPC-3
AsPC-1 = assay: Cell viability analysis, pancreatic cancer AsPC-1; assay type: cell-based, human; details: Homo sapiens, ASPC1, 72 h, read-out: The results of antibiotic drug inhibiting cancer cell lines (cell viability analysis), AsPC-1
NIH: OVCAR-3 = assay: Cell viability analysis, ovarian cancer NIH: OVCAR-3; assay type: cell-based, human; details: Homo sapiens, OVCAR-3, 72 h, read-out: The results of antibiotic drug inhibiting cancer cell lines (cell viability analysis), NIH-OVCAR-3
TOV-21G = assay: Cell viability analysis, ovarian cancer TOV-21G; assay type: cell-based, human; details: Homo sapiens, TOV21G, 72 h, read-out: The results of antibiotic drug inhibiting cancer cell lines (cell viability analysis), TOV-21G
[16] = system: SAS (Tongue squamous cell carcinoma); assay: Cell viability analysis, tongue cancer SAS; assay type: cell-based, human; details: Homo sapiens, 72 h, read-out: The results of antibiotic drug inhibiting cancer cell lines (cell viability analysis), SAS
U-2OS = assay: Cell viability analysis, osteosarcoma U-2OS; assay type: cell-based, human; details: Homo sapiens, U2OS, 72 h, read-out: The results of antibiotic drug inhibiting cancer cell lines (cell viability analysis), U2OS
[17] = system: 786-O (Renal adenocarcinoma); assay: Cell viability analysis, renal cancer 786-O; assay type: cell-based, human; details: Homo sapiens, 786-0, 72 h, read-out: The results of antibiotic drug inhibiting cancer cell lines (cell viability analysis), 786-O
[18] = system: HCT116 (p53+) (Colorectal Carcinoma)
[19] = read-out: The results of antibiotic drug inhibiting cancer cell lines (cell viability analysis), H1650, H1650, repeated experiment
[20] = read-out: cell viability (survival rate), H1650, drug 10 μM, 72 hours, WST-1, OD450 nm
[21] = read-out: The results of antibiotic drug inhibiting cancer cell lines (cell viability analysis), A549, A549, repeated experiment
[22] = read-out: cell viability (survival rate), A549, drug 10 μM, 72 hours, WST-1, OD450 nm
[23] = read-out: The results of antibiotic drug inhibiting cancer cell lines (cell viability analysis), AGS, repeated experiment
[24] = read-out: cell viability (survival rate), AGS, drug 10 μM, 72 hours, WST-1, OD450 nm
[25] = read-out: The results of antibiotic drug inhibiting cancer cell lines (cell viability analysis), MKN-45, MKN-45, repeated experiment
[26] = read-out: cell viability (survival rate), MKN-45, drug 10 μM, 72 hours, WST-1, OD450 nm
[27] = read-out: The results of antibiotic drug inhibiting cancer cell lines (cell viability analysis), HepG2, HepG2, repeated experiment
[28] = read-out: cell viability (survival rate), HepG2, drug 10 μM, 72 hours, WST-1, OD450 nm
[29] = read-out: The results of antibiotic drug inhibiting cancer cell lines (cell viability analysis), LoVo, repeated experiment
[30] = read-out: cell viability (survival rate), LoVo, drug 10 μM, 72 hours, WST-1, OD450 nm
[31] = read-out: The results of antibiotic drug inhibiting cancer cell lines (cell viability analysis), A375, A375, repeated experiment
[32] = read-out: cell viability (survival rate), A375, drug 10 μM, 72 hours, WST-1, OD450 nm
[33] = read-out: The results of antibiotic drug inhibiting cancer cell lines (cell viability analysis), HeLa, repeated experiment
[34] = read-out: cell viability (survival rate), HeLa, drug 10 μM, 72 hours, WST-1, OD450 nm
[35] = read-out: The results of antibiotic drug inhibiting cancer cell lines (cell viability analysis), PC-3, PC-3, repeated experiment
[36] = read-out: cell viability (survival rate), PC3, drug 10 μM, 72 hours, WST-1, OD450 nm
[37] = read-out: The results of antibiotic drug inhibiting cancer cell lines (cell viability analysis), TSGH-8301, TSGH-8301, repeated experiment
[38] = read-out: cell viability (survival rate), TSGH, drug 10 μM, 72 hours, WST-1, OD450 nm
[39] = read-out: The results of antibiotic drug inhibiting cancer cell lines (cell viability analysis), MCF-7, MCF-7, repeated experiment
[40] = read-out: cell viability (survival rate), MCF7, drug 10 μM, 72 hours, WST-1, OD450 nm

Compound	viability at 10 µM [1, 19] [%]	viability at 10 µM [1, 20] [%]	viability at 10 µM [2, 21] [%]	viability at 10 µM [2, 22] [%]	viability at 10 µM [3, 23] [%]	viability at 10 µM [3, 24] [%]	viability at 10 µM [4, 25] [%]	viability at 10 µM [4, 26] [%]	viability at 10 µM [5, 27] [%]	viability at 10 µM [5, 28] [%]	viability at 10 µM [6] [%]	viability at 10 µM [7, 29] [%]	viability at 10 µM [7, 30] [%]	viability at 10 µM [8, 31] [%]	viability at 10 µM [8, 32] [%]	viability at 10 µM [9] [%]	viability at 10 µM [10, 33] [%]	viability at 10 µM [10, 34] [%]	viability at 10 µM [11] [%]	viability at 10 µM [12, 35] [%]	other results
Cc1ncc([N+](=O)[O-])n1CCO [Metronidazole (Flagyl), Metronidazole]	87.2	94.9	97.7	36.5	113	90.5	108	57.7	94.1	105	92.3	118	61.1	74.7	56.4	68.2	75.3	90.7	114	95.6	viability at 10 µM [12, 36]: 40.9%; viability at 10 µM [13, 37]: 92.4%; viability at 10 µM [13, 38]: 62%; viability at 10 µM (T24): 93.8%; viability at 10 µM [14, 39]: 77.3%; viability at 10 µM [14, 40]: 43.8%; viability at 10 µM [15]: 93.3%; viability at 10 µM (BxPC-3): 83.6%; viability at 10 µM (AsPC-1): 83.1%; viability at 10 µM (NIH: OVCAR-3): 110%; viability at 10 µM (TOV-21G): 95.8%; viability at 10 µM [16]: 112%; viability at 10 µM (U-2OS): 99.6%; viability at 10 µM [17]: 92%; viability [18]: 98.9%
CN(C)[C@@H]1C(O)=C(C(N)=O)C(=O)[C@@]2(O)C(O)=C3C(=O)c4c(O)cccc4[C@@](C)(O)[C@H]3C[C@@H]12 [Tetracycline HCl]	87.1	41.1	99.7	72.8	94	88.2	133	55.9	106	74.1	92.2	92	71.8	82.8	74.1	100	79	96.1	103	104	viability at 10 µM [12, 36]: 42.9%; viability at 10 µM [13, 37]: 103%; viability at 10 µM [13, 38]: 34.1%; viability at 10 µM (T24): 130%; viability at 10 µM [14, 39]: 93.1%; viability at 10 µM [14, 40]: 75.9%; viability at 10 µM [15]: 88.1%; viability at 10 µM (BxPC-3): 77.7%; viability at 10 µM (AsPC-1): 96.7%; viability at 10 µM (NIH: OVCAR-3): 104%; viability at 10 µM (TOV-21G): 81.9%; viability at 10 µM [16]: 79.2%; viability at 10 µM (U-2OS): 53.3%; viability at 10 µM [17]: 99.9%; viability [18]: 115% and 114%
CN(C)[C@@H]1C(O)=C(C(N)=O)C(=O)[C@@]2(O)C(O)=C3C(=O)c4c(O)ccc(Cl)c4[C@@](C)(O)[C@H]3C[C@@H]12 [Chlortetracycline HCl]	88.5	59.9	99.3	45.8	99.9	69.7	142	43	113	75	117	74.4	61.4	108	49.2	97.1	84	83.9	88	108	viability at 10 µM [12, 36]: 38.2%; viability at 10 µM [13, 37]: 152%; viability at 10 µM [13, 38]: 50.4%; viability at 10 µM (T24): 122%; viability at 10 µM [14, 39]: 93.4%; viability at 10 µM [14, 40]: 32.2%; viability at 10 µM [15]: 83.2%; viability at 10 µM (BxPC-3): 63.7%; viability at 10 µM (AsPC-1): 82.1%; viability at 10 µM (NIH: OVCAR-3): 99.3%; viability at 10 µM (TOV-21G): 92.2%; viability at 10 µM [16]: 97.4%; viability at 10 µM (U-2OS): 80.3%; viability at 10 µM [17]: 91.4%; viability [18]: 91.5%
